Results on one compound are retold here after patent US20200113902A1, “COMPOSITIONS AND METHODS FOR TREATING CANCERS WITH COVALENT INHIBITORS OF CYCLIN-DEPENDENT KINASE 7 (CDK7)” (Syros Pharmaceuticals, Inc., priority 2017, published 2020).

Molecules are shown by their SMILES.

This experiment concerns OV14702 xenograft. Nature of the experiment: Ovarian PDX OV14702, tumor volume. Format: in vivo, mouse. The conditions noted are these: OV14702 (RB1 null); 40 or 30 mg/kg i.v. BIW. As for the experimental part:
Patient-derived xenograft (PDX) models from ovarian carcinoma patients (OV5387, OV14702, OV14972, OV15398, OV15576, OV15696, OV15612, OV15631) were established in NOD-SCID mice at Crown Bioscience (San Diego, USA). Cryo vials containing tumor cells were thawed and prepared for injection into mice. Cells were washed in PBS, counted, and resuspended in cold PBS at a concentration of 50,000-100,000 viable cells/100 ul. Cell suspensions were mixed with an equal volume of Cultrex ECM and kept on ice during transport to the vivarium. Cells were prepared for injections by withdrawing ECM-Cell mixture into a chilled slip-tip syringe fitted with a 26G 7/8 (0.5 mm×22 mm) needle. The filled syringes were kept on ice to avoid the solidification of ECM. Each mouse was inoculated subcutaneously in the right flank with 200 uL of the cell suspension. Tumor sizes were measured in two dimensions using a caliper, and the volumes were expressed in mm3 using the formula: V=0.5 a×b^2 where a and b are the longest and shortest diameters of the tumor, respectively. Compound 1 treatment was started when the average tumor size reached 150-200 mm^3.
Compound 1 was formulated in w/v 20% Captisol (pH 4-6) and administered by i.v. twice weekly (BIW) at a final dose of 40 mg/kg or 30 mg/kg in a 10 ml/kg volume. Tumor volumes were measured twice weekly over the course of the study. […]

As to `CN(C)C/C=C/C(=O)Nc1ccc(C(=O)N[C@@]2(C)CCC[C@@H](Nc3ncc(Cl)c(-c4c[nH]c5ccccc45)n3)C2)nc1` [Compound 1, N-((1S,3R)-3-(5-chloro-4-(1H-indol-3-yl)pyrimidin-2-ylamino)-1-methylcyclohexyl)-5-((E)-4-(dimethylamino)but-2-enamido)picolinamide], the “Response to treatment (tumor growth)” value is “responded”.
